Reference: publication PMC10989073, “Antineoplastic effect of compounds C14 and P8 on TNBC and radioresistant TNBC cells by stabilizing the K-Ras4B^G13D/PDE6δ complex” (Frontiers in Oncology, 2024)

Assays:
MDA-MB-231 cells [1] = experiment: Apoptosis/necrosis assay (Annexin V–propidium iodide, flow cytometry); format: cell-based, human; conditions: MDA-MB-231, 24 h; C14 and P8 at IC50-24, cisplatin 100 µM, doxorubicin 0.5 µM
Description: (§1) To determine if the C14 and P8 compounds were able to evoke cell death by apoptosis or necrosis, cell lines MCF-10A, MDA-MB-231, and MDA-MB-231RR were treated at IC50-24 for 24 h. Apoptosis and necrosis were determined using the Apoptosis/Necrosis Detection kit (Abcam, Cambridge, UK) according to the manufacturer’s instructions. In brief, approximately 500,000 cells were seeded in 6-well plates (Corning) for 24 h. Then, each cell line was treated with the respective IC50-24 concentrations of C14 and P8. […] Cells were harvested and collected by centrifugation. All the samples were analyzed in triplicate using flow cytometry equipment FACSCalibur instrument (BD Biosciences, San Jose, CA, USA) at […] and 575-nm emission. Data analysis was performed using the FlowJo software (Tree Star Inc., Ashland, OR, USA). All experiments were performed in triplicate.

MDA-MB-231RR cells [2] = experiment: as above; format: cell-based, human; conditions: 24 h, C14 and P8 at IC50-24, cisplatin 100 µM, doxorubicin 0.5 µM
Description: as §1

Ras-GTP in MCF-10A cells = experiment: Ras activation pull-down assay (Raf-RBD); format: cell-based, human; conditions: 3 h pre-treatment (C14, P8 at IC50-48H), EGF 100 ng/ml 10 min
Description: Subsequently, the cells were stimulated with epidermal growth factor (EGF) (100 ng/ml) for 10 minutes. Lysates (1 mg/ml) were exposed to Ras GTP-binding protein (Raf-RBD), following the manufacturer’s instructions. Experiments for each cell type and condition were repeated three times.

[3] = system: MDA-MB-231RR xenograft tumors; experiment: Immunohistochemistry and digital pathology of xenograft tumors; format: in vivo, Nu/Nu nude mice; conditions: for PCNA expression (IHC, digital pathology) / VEGF expression (IHC, digital pathology) / cyclin D1 expression (IHC, digital pathology): MDA-MB-231RR xenograft tumors after treatment; for expression of CD31 (IHC) / mitotic index (H&E staining): MDA-MB-231RR xenograft tumors; for mitotic index (H&E staining): compared to the control group
Description: To determine the impact of C14 and P8 drugs on tumor inhibition, angiogenic, and cell cycle markers in a xenograft model, immunohistochemical assays and digital pathological analysis were conducted. For tissue preparation, 4-µm-thick tumor sections underwent a series of preparations: i) deparaffinization in xylene, ii) antigen retrieval in a sodium citrate buffer at pH 6, iii) blocking of endogenous peroxidase activity using a 10% hydrogen peroxide solution, and iv) non-specific binding blockade for 1 h. For the antibody incubation, the tumor sections were incubated with primary antibodies: Anti-Cyclin D1 (Abcam), Anti-PCNA (Abcam), Anti-CD31 (Abcam), Anti-VEGF (Abcam) at a 1:500 dilution.
The incubation with primary antibodies occurred at room temperature overnight. Subsequently, secondary antibody incubation was conducted. Then, the sections were incubated with horseradish peroxidase (HRP)-conjugated secondary antibody for 30 minutes. Finally, visualization and staining were performed using a diaminobenzidine (DAB) detection system from Vector Laboratories, Inc. (Burlingame, CA, USA). Counterstaining was performed using hematoxylin.
For the mitotic index evaluation, hematoxylin and eosin (H&E) staining was conducted to calculate the mitotic index. From each H&E-stained tumor tissue, 10 random fields were captured at ×40 magnification, and the number of mitotic figures was counted. The average count was used to calculate the mitotic index using the following formula: Mitotic index = Number of mitoses/10.
For digital pathology analysis, the immunohistochemistry (IHC)-stained sections were digitized using an Aperio ScanScope CS2 from Leica Biosystems (Nussloch, Germany), which generated high-resolution ×20 digital images (0.45 µm/pixel). These images were analyzed using ImageScope (Aperio, San Diego, CA, USA) to quantify marker expression. Then, a quantification algorithm was developed for each tissue to assess total and nuclear protein expression. The ImageScope allowed setting thresholds for color saturation and defining upper and lower limits for intensities of weak, moderate, and strong positive pixels. Lastly, the raw data encompassed the number of positive pixels and the intensity of positive pixels, which were normalized to the number of total pixels counted in µm^2. Data were presented as total density per µm^2.

MDA-MB-231 cells [4] = experiment: Clonogenic assay; format: cell-based, human; conditions: MDA-MB-231, 10 to 12 days; C14 and P8 at IC50-48, cisplatin 100 µM, doxorubicin 0.5 µM
Description: (§2) The principal aim of a clonogenic assay is to evaluate the effect of chemotherapy agents or new drugs by the measurement of their ability to arrest tumor cell division and their ability to develop new colonies after their exposure to these new drugs ([56]). Therefore, the colony formation ability of the cell lines MCF-10A, MDA-MB-231, and MDA-MB-231RR was evaluated after their exposure to the C14 and P8 compounds. In brief, breast cancer cell lines were cultured in 6-well plates (Corning), seeding 300 cells per well, and incubated at 37°C in 5% CO2 for 24 h. Compounds C14 and P8 were added at the maximum evaluated concentration IC50-48. As controls, cells without treatment and cells treated in the presence of a vehicle (DMSO at 0.66%) were employed (Sigma-Aldrich). […] After 10 days of treatment, cells were fixed with 4% PFA and stained with 0.1% crystal violet in citric acid (Sigma-Aldrich) for 15 minutes. Subsequently, the dye present in the cells was extracted using isopropanol and read at 570 nm in a Synergy-HTX microplate reader (BioTek). Each test was performed in triplicate. Data were expressed as % colonies relative to the untreated control ([56]).

MDA-MB-231RR cells [5] = experiment: Clonogenic assay; format: cell-based, human; conditions: for reduction in colony formation: 10 to 12 days, C14 and P8 at IC50-48, cisplatin 100 µM, doxorubicin 0.5 µM
Description: as §2

[6] = Body weight and survival of xenograft mice under treatment; format: in vivo
Description: Female immune-deficient Nu/Nu nude mice at 6–8 weeks of age ([…], Mexico City, Mexico) were maintained in pathogen-free conditions with irradiated chow. […] Body weight and tumor volume were measured every third day. Tumor sizes were calculated using the formula [(length × width2)/2] in mm.

Structure (SMILES) | apoptosis cells (MDA-MB-231 cells [1]) | necrosis (MDA-MB-231 cells [1]) | apoptosis cells (MDA-MB-231RR cells [2]) | necrosis (MDA-MB-231RR cells [2]) | reduction in Ras-GTP (Ras-GTP in MCF-10A cells) | PCNA expression (IHC, digital pathology) [3] | VEGF expression (IHC, digital pathology) [3] | cyclin D1 expression (IHC, digital pathology) [3] | reduction in colony formation (MDA-MB-231 cells [4]) | reduction in colony formation (MDA-MB-231RR cells [5]) | survival of mice ([6]; Nu/Nu mice, cisplatin 6 mg/kg i.p. daily) | weight decrease ([6]; Nu/Nu mice, cisplatin 6 mg/kg i.p. daily, within the first 5 days of treatment) | expression of CD31 (IHC) [3] | mitotic index (H&E staining) [3] | tolerability (weight loss, overall survival) ([6]; Nu/Nu mice, 30 mg/kg i.p. daily) | colonies persisted (MDA-MB-231RR cells [5]; C14 at IC50-48) | tolerability (weight loss, overall survival) ([6]; mouse, in vivo, ip, 30 mg/kg)
N.N.[Cl][Pt][Cl] [Cisplatin, cisplatin, reference compound] | 13.71% | 2.14% | up to 19.13% | 0.40% | did not show an effect | 22 μm^2 | 3,000 μm^2 | 25 μm^2 | significant reduction | 99% | ≤ 6 days | > 20% |  |  |  |  | 
O=C(CN1CCN(c2cccc(Cl)c2)CC1)N[C@@H]1CCOc2ccccc21 [P8, 2-[4-(3-chlorophenyl)piperazin-1-yl]-N-[(4R)-chroman-4-yl]acetamide] | 48.5% | 4.28% | 72% | 1.75% | approximately 40% | 18 μm^2 | 3,000 μm^2 | 20 μm^2 | up to 95% | up to 99% |  |  | decreased | lower | well tolerated |  | 
CN(CC(=O)NC1CCOc2ccccc21)Cc1cccc(Cl)c1 (stereo not drawn) [C14, 2-[(3-chlorophenyl)-methyl-methyl-amino]-N-croman-4-yl-acetamide] | up to 18.52% | 0.56% | up to 21.62% | 0.13% | approximately 40% | 10 μm^2 | 100 μm^2 | 8 μm^2 | up to 95% | up to 90% |  |  | decreased | lower |  | ~10% | well tolerated
